Reference: patent publication US10338078B2, “Method and apparatus for analyzing biomolecules using Raman spectroscopy” (Japan Science and Technology Agency, priority 2012, dated 2019)

Assays:
[1] = system: target protein; conditions: cited from earlier work
[2] = molecular target: cathepsin B (Homo sapiens, UniProt P07858); assay: inhibition of cathepsin B enzyme activity; format: biochemical; conditions: read-out: activity to inhibit cathepsin B, IC50
Excerpt: Persons skilled in the art can appropriately select the position to introduce the Raman label as well as the type of Raman label to introduce by considering the structure of the compound. Moreover, persons skilled in the art having general techniques in the field of organic synthesis can appropriately synthesize a Raman-labeled compound as the low-molecular-weight compound according to the present invention. This is explained with a specific example as follows. Persons skilled in the art can synthesize an AOMK derivative (hereinafter, also referred to as RAT8-AOMK) by Raman-labeling acyloxymethyl ketone (AOMK) (an inhibitor of cathepsin B) with alkyne using general techniques in the field of organic synthesis. The RAT8-AOMK binds to cathepsin B, so as to inhibit its enzyme activity. The activity of RAT8-AOMK to inhibit cathepsin B is represented by IC50=0.3 μM. RAT8-AOMK can be synthesized and obtained by reacting N-Boc-AOMK (IC50=0.05 μM) with 4-nitrophenyl-4-ethynylbenzyl carbonate. Acyloxymethyl ketone (AOMK) is known as a cysteine protease inhibitor. The principle thereof is that a cysteine residue of the active center of an enzyme protein is modified by AOMK, and thus activity as protease is diminished (see FIG. 24).

| IC50 [2] | Compound | activity when modified with a fluorophore [1] |
| --- | --- | --- |
|  | 16F16 | loses its activity |
| 0.3 µM | C#Cc1ccc(COC(=O)N[C@@H](Cc2ccccc2)C(=O)NCC(=O)COC(=O)c2c(C)cccc2C)cc1 [RAT8-AOMK] |  |
